Data as given in patent US10507212B2, “Method for use of homopiperazinium compounds in the treatment of cancer” (UNIVERSITÉ LAVAL, priority 2014, dated 2019).

Assays:
A549 lung adenocarcinoma = experiment: In vitro combination treatment with cisplatin or taxol, A549 (MTT); type: cell-based, human; settings: A549, 3 days; increasing concentrations added to suboptimal doses of ASM-024
Protocol: The concomitant effect of ASM-024 and cisplatin or taxol on the proliferation of A549 lung adenocarcinoma and MCF7 breast cancer adenocarcinoma cells was assessed in vitro.
A549 cells (3.0×10^3cells/well) were first cultured with 10% FBS in F12K media and MCF7 cells (10×10^3 cells/well) with 10% FBS in EMEM media for 24 hours to allow cells to adhere to the plate at 37° C. in a humidified incubator with 5% CO2. The next day, the media was replaced in medium containing appropriate drug concentrations […] for an additional 72 hours. Cell viability was quantified using the MTT colorimetric assay (M2128, Sigma) at 575-690 nm.

[1] = test system: A549 human lung carcinoma cells; experiment: In vivo antitumor assay, A549 xenograft in Balb/c nude mice (Example 29); settings: day 49; ASM-024 45 mg/kg s.c. daily day 14-38; taxol 10 mg/kg i.p. days 21, 28, 35; cisplatin 2.5 mg/kg i.p. days 28, 35
Protocol: For the in vivo antitumor assay, A549 human lung carcinoma cells (3.5×106) in 50% F12K medium (Matrigel) were implanted subcutaneously in the flank of Balb/c nude mice (nu/nu, Charles River) and allowed to grow for 14 days. ASM-024 was administered daily by subcutaneous delivery at the dose of 45 mg/kg from day 14 to day 38 post cell inoculation. Taxol was administrated intraperitoneally at the dose of 10 mg/kg on days 21, 28 and 35. Cisplatin was administrated intraperioneally at the dose of 2.5 mg/kg on days 28 and 35. From day 14 to day 49, tumor length and width were measured once or twice a week with a caliper and tumor volume calculated according to the formula Volume=(width2×length)/2.

N.N.[Cl][Pt][Cl] [Cisplatin]
inhibition of in vitro proliferation, combination (A549 lung adenocarcinoma): potentiated the inhibition of in vitro proliferation | A549 human carcinoma tumor growth (tumor volume) [1]: decrease in A549 human carcinoma tumor growth

CC(=O)O[C@H]1C(=O)[C@@]2(C)[C@H]([C@H](OC(=O)c3ccccc3)[C@]3(O)C[C@H](OC(=O)[C@H](O)[C@@H](NC(=O)c4ccccc4)c4ccccc4)C(C)=C1C3(C)C)[C@]1(OC(C)=O)CO[C@@H]1C[C@@H]2O [taxol, Paclitaxel]
inhibition of in vitro proliferation, combination (A549 lung adenocarcinoma): potentiated the inhibition of in vitro proliferation | A549 human carcinoma tumor growth (tumor volume) [1]: decrease in A549 human carcinoma tumor growth
